Experimental data: PubChem BioAssay (NCI)
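48-hour exposure; five concentrations; linearly interpolated endpoints. The concentration for full growth arrest is given as TGI.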

Key:
Experiment in all cases: growth of human tumour cells (NCI), 48 h
[1] = test system: U251 CNS
[2] = test system: NCI-H522 lung
[3] = test system: SF-295 CNS
[4] = test system: CCRF-CEM leukemia
[5] = test system: OVCAR-8 ovarian
[6] = test system: SNB-19 CNS
[7] = test system: M14 melanoma
[8] = test system: PC-3 prostate
[9] = test system: SF-539 CNS
[10] = test system: SR leukemia

Row | Compound | TGI [1] [µM] | TGI [2] [µM] | TGI [3] [µM] | TGI [4] [µM] | TGI [5] [µM] | TGI [6] [µM] | TGI [7] [µM] | TGI [8] [µM] | TGI [9] [µM] | TGI [10] [µM]
1 | COc1c2cc([N+](=O)[O-])cc1CNC(=O)CN1CCOCCOCCN(CCOCCOCC1)CC(=O)NC2 | > 100 | > 100 | > 100 | > 100 | > 100 | > 100 | > 100 | > 100 |  | 
2 | Cc1ccc(S(=O)(=O)c2scc(-c3ccccc3)c2C)cc1 | > 100 | > 100 | > 100 |  | > 100 | > 100 | > 100 | > 100 | > 100 | 
3 | COC(=O)C(=O)C(C(=O)Nc1cccc(C)c1C)C1Sc2ccccc2NC1=O (stereo not drawn) | > 25 | > 25 | > 25 | > 25 | > 25 | > 25 | > 25 |  | > 25 | > 25
4 | CCC(C)[C@@H](NCc1ccccc1)[C@H](OCc1ccccc1)[C@@H]1COC(C)(C)O1 (stereo partly drawn) | 51.1 |  | 60.2 | 60.9 | 45.4 | 57.3 | > 100 | > 100 |  | 60.5
5 | CCOC(=O)c1cnc(-n2[nH]c(C)c(CCO)c2=O)[nH]c1=O | > 100 |  | > 100 | > 100 | > 100 | > 100 | > 100 | > 100 | > 100 | 
6 | O=C(Nc1cccc2ccccc12)Oc1ccccc1C1CCCCC1 | 26.7 |  | 31.3 | 53.7 | 32.5 | > 100 | 32.4 |  | 32 | 57
7 | O=C(CSCC(=O)N/N=C/c1cc(I)cc(I)c1O)N/N=C/c1cc(I)cc(I)c1O | 26.2 | 35 | 47.1 |  | 59.8 | 36.6 | 43.6 | > 100 | 38.1 | 14
8 | Nc1nc(N)c2ncn(CC3CCC(CO)C3)c2n1 (stereo not drawn) | > 100 |  | > 100 | > 100 |  | > 100 | > 100 | > 100 | > 100 | 
9 | Cc1[nH]c2ncn(/N=C/c3ccccc3O)c(=N)c2c1Cc1ccccc1 | 41.2 |  | > 100 | > 100 | > 100 | > 100 | > 100 | 46.6 | > 100 | 
10 | CNC(=O)c1ccccc1-[s+]1c2ccccc2c(=O)n1C (stereo not drawn) | > 100 | > 100 | > 100 | > 100 | > 100 | > 100 | > 100 | > 100 | > 100 | 
11 | COc1cccc2c1OC1c3ccccc3OCC1C2 (stereo not drawn) | > 100 |  | > 100 | > 100 | > 100 |  | > 100 | > 100 | > 100 | > 100
12 | O=S(=O)(c1ccc(Br)cc1)n1c2ccc(Br)cc2c2nc3ccccc3nc21 | 90.3 | > 100 | > 100 | > 100 | > 100 | > 100 | > 100 | > 100 |  | 
13 | c1csc(-c2ccc(-c3ccc(-c4ccc(-c5cccs5)s4)s3)s2)c1 | > 100 |  | > 100 | 53.8 | > 100 |  | > 100 |  | > 100 | > 100
14 | COC(=O)c1cn(CCCC(=O)O)nn1 | > 100 |  | > 100 | > 100 | > 100 | > 100 |  | > 100 | > 100 | 
15 | CCOC(=O)CCCn1nnc(C(=O)OCC)c1C(=O)OCC | > 100 |  | > 100 | > 100 | > 100 | > 100 |  | > 100 | > 100 | > 100
16 | CC(=O)NC1C(OCc2ccccc2)OC(CO)C(O)C1OCC(=O)NC(C)C(=O)NC(CCC(=O)NCCCCNc1ccc([N+](=O)[O-])c2[nH]c3ccccc3c(=O)c12)C(N)=O (stereo not drawn) | > 100 |  | > 100 |  | > 100 | > 100 | > 100 | > 100 | > 100 | > 100
17 | O=C1N[C@H]2c3c(Cl)sc(Cl)c3/C(=N/O)[C@H]2O1 | > 100 |  |  | > 100 | > 100 | > 100 | > 100 | > 100 | > 100 | > 100
18 | O=C(O)CCCl | > 5000 | > 5000 | > 5000 | > 5000 | > 5000 |  | > 5000 |  | > 5000 | > 5000
19 | Nc1nc2c(=O)c3ccccc3sc2s1 | > 100 |  | > 100 | > 100 | 50.7 | > 100 | > 100 | > 100 | 48.2 | > 100
